This is an account of results in article PMC6826779, “Bis-allylic Deuterated DHA Alleviates Oxidative Stress in Retinal Epithelial Cells” (Antioxidants, 2019).

The nature of this data set: Radical oxidation of DHAs with AAPH, LC-MS/MS quantification of 4-F4t-NeuroP. In kind it is physicochemical. The note with it: AAPH 1 mM, phosphate buffer/methanol, 37 °C, 14 h; compared to natural DHA. As to the method: A solution of DHA in methanol (1 mg/mL, 0.5 mL) was added to 4.5 mL of phosphate-buffered saline solution (pH = 7.3) containing 1 mM of AAPH. The mixture was heated at 37 °C for 14 h, and then allowed to reach room temperature The mixture was spiked with 4 ng of internal standard (IS: C21-15-F2t-IsoP) and then purified using solid phase extraction.
For solid-phase extraction (SPE), Oasis MAX mixed polymer phase anion exchanger cartridges were used. Aliquots of 2 mL of sample were loaded on the cartridges previously conditioned with 2 mL of methanol and equilibrated with 2 mL of 0.02 M of formic acid (pH 4.5). […] Recoveries were determined to range between 83 and 100% (see Supplementary Materials). […]
Mass spectrometry analysis was performed on an AB SCIEX QTRAP 5500 (Sciex). […] Quantification was accomplished using external calibration lines constructed with the internal standard (IS: C21-15-F2t-IsoP). The data are presented as means ± SD determined from 3 independent experiments, each performed in triplicate assay.
Standards solutions of IS (C21-15-F2t-IsoP) and NeuroP standardt (4(RS)-F4t-NeuroP) used to determine the different characteristic transitions and the elution time for each compound were prepared in methanol at 1 µg/mL from 1 mg/mL stock solution in methanol. […] Finally, calibration curves were calculated by the area ratio of the NeuroP and the internal standard.

Consider `[2H]C([2H])(C=CCC=CCC=CCC=CCC)C=CC([2H])([2H])C=CCCC(=O)O` [D4-DHA, (6,6,9,9-D4)-DHA], for which the “4-F4t-NeuroP formation after radical oxidation” value is “decrease of 4-F4t-NeuroP formation”.
As for `[2H]C([2H])(/C=C\C/C=C\C/C=C\C/C=C\C/C=C\CC)/C=C\CCC(=O)O` [D2-DHA, (6,6-D2)-DHA], the entry is “decrease of 4-F4t-NeuroP formation”.
